# According to patent publication US20230079687A1, “ALKYLRESORCINOL HOMOLOGUES AS ANTIOXIDANTS” (The Penn State Research Foundation, priority 2021, published 2023):
# “Also recorded” adds a separate entry of the source.
# Tests used:
# [1] = Formation of lipid hydroperoxides in antioxidant-treated crackers during storage; conditions: for course of lipid hydroperoxide formation after the lag phase (in words) / storage day at which lipid hydroperoxide concentration began to increase (end of lag phase): FIG. 1; for storage day at which lipid hydroperoxide concentration began to increase (end of lag phase): autoxidized at 55° C. in the absence of light; for order of induction periods for lipid hydroperoxides: time to reach threshold [Hydroperoxides]=0.1 mM/g cracker, FIG. 3A
# Description: (§1) Based on the concentrations of the individual AR stock solutions previously determined, an appropriate volume, containing 153 μmol of the respective individual AR homologue, was measured into plastic centrifuge tubes to prepare individual AR homologue treatments. A treatment containing a mixture of the individual AR homologues, at their natural abundance in rye bran, was prepared by combining 25.3% of C17:0, 32.0% of C19:0, 22.6% of C21:0, 12.5% of C23:0, and 7.6% of C25:0. The same procedure was carried out with 10 mM stock solutions of orcinol, α-tocopherol, and butylated hydroxytoluene (BHT) and all treatments were dried under a stream of nitrogen. Ethanol (1.0 mL) was added to the dried treatments (and a control treatment containing no antioxidant) and mixed with 10 g of melted ISO. The antioxidant activity of each treatment was tested at 153 μmol because this corresponds to 500 ppm of C21:0 in the final cracker which is a typical antioxidant concentration used in bakery applications.
# (§2) Antioxidant-treated ISO was melted at 90° C. for 10 minutes and mixed in a stand mixer (KSM95, KitchenAid, Benton Harbor, Mich., U.S.) using a beater blade for 1 minute (speed 2). Sifted flour, salt, and baking soda were added and mixed using a beater blade for 1 minute (speed 2). Water was added and mixed using a dough hook for 1 minute (speed 2). The additional flour was sprinkled onto the surface of a baking mat and incorporated into the dough by kneading by hand (30 folds). The dough was flattened by passing it through a pasta roller (KPSA, KitchenAid, Benton Harbor, Mich., U.S.) twice (thickness setting 2). The sheeted dough was cut into 2.5 cm×2.5 cm crackers and baked on an ungreased baking sheet for 9 minutes at 163° C. (FD 53-UL, Binder, Tuttlingen, Germany). After cooling to room temperature, crackers were coarsely crumbled using a mortar and pestle and weighed (0.5 g) into 10 mL amber glass headspace vials (Supelco Analytical, Bellefonte, Pa., U.S.), sealed with stainless steel screw caps with PTFE/silicone septa (Supelco Analytical, Bellefonte, Pa., U.S.), and allowed to autoxidize at 55° C. in the absence of light for up to 160 days. Crackers were analyzed for lipid hydroperoxides, headspace hexanal, and AR loss every 5 days for day 0-50, every 10 days for day 51-100, and every 20 days for the remainder of the storage time.
# Lipid hydroperoxides were determined according to the method described by Shantha & Decker (1994) with slight modifications. Cracker samples (0.1 g) were finely ground using a mortar and pestle and mixed with 5.0 mL chloroform/methanol (2:1 (v/v)) by vortexing (10 seconds, 3 times). The hydroperoxide-containing lipid fraction was extracted and isolated by centrifugation at 2500×g for 10 minutes (Centrifuge 5702, A-4-38 Rotor, Eppendorf, Hamburg, Germany). To this extract (1.0 mL), 16.7 μL of an iron chloride solution (prepared by mixing 50 mL 66 mM FeSO4 in water with 50 mL 38 mM BaCl2 in 0.4 N HCl) was added followed by 16.7 μL of ammonium thiocyanate (3.9 M in water), and allowed to react at room temperature for 20 minutes. The absorbance of the samples was measured at 500 nm (GENESYS 180 UV-Vis Spectrophotometer, Thermo Fisher Scientific, Waltham, Mass., U.S.) and lipid hydroperoxides were quantified based on a standard curve prepared using cumene hydroperoxide.
# Individual AR homologues (C17:0, C19:0, C21:0, C23:0, C25:0) were added separately and as a mixture (AR Mix) to ISO and subsequently incorporated into the cracker samples. The antioxidant activities of the AR homologues in crackers were compared to orcinol (a water-soluble AR), conventional antioxidants (i.e., α-tocopherol, BHT), and a control treatment (i.e., no added antioxidant). The crackers were allowed to autoxidize in the absence of light and primary (i.e., lipid hydroperoxides) and secondary products (i.e., headspace hexanal) of lipid oxidation were measured as a function of time.
# [2] = Antioxidant activity in the low-moisture model cracker system (overall lipid oxidation study); conditions: 153 μmol antioxidant
# Description: Based on the concentrations of the individual AR stock solutions previously determined, an appropriate volume, containing 153 μmol of the respective individual AR homologue, was measured into plastic centrifuge tubes to prepare individual AR homologue treatments. […] The same procedure was carried out with 10 mM stock solutions of orcinol, α-tocopherol, and butylated hydroxytoluene (BHT) and all treatments were dried under a stream of nitrogen. Ethanol (1.0 mL) was added to the dried treatments (and a control treatment containing no antioxidant) and mixed with 10 g of melted ISO. […] Antioxidant-treated ISO was melted at 90° C. for 10 minutes and mixed in a stand mixer (KSM95, KitchenAid, Benton Harbor, Mich., U.S.) using a beater blade for 1 minute (speed 2). […] flour, salt, and baking soda were added and mixed using a beater blade for 1 minute (speed 2). Water was added and mixed using a dough hook for 1 minute (speed 2). The additional flour was sprinkled onto the surface of a baking mat and incorporated into the dough by kneading by hand (30 folds). The dough was flattened by passing it through a pasta roller (KPSA, KitchenAid, Benton Harbor, Mich., U.S.) twice (thickness setting 2). The sheeted dough was cut into 2.5 cm×2.5 cm crackers and baked on an ungreased baking sheet for 9 minutes at 163° C. (FD 53-UL, Binder, Tuttlingen, Germany). […] Individual AR homologues (C17:0, C19:0, C21:0, C23:0, C25:0) were added separately and as a mixture (AR Mix) to ISO and subsequently incorporated into the cracker samples. The antioxidant activities of the AR homologues in crackers were compared to orcinol (a water-soluble AR), conventional antioxidants (i.e., α-tocopherol, BHT), and a control treatment (i.e., no added antioxidant). The crackers were allowed to autoxidize in the absence of light and primary (i.e., lipid hydroperoxides) and secondary products (i.e., headspace hexanal) of lipid oxidation were measured as a function of time.
# [3] = Formation of headspace hexanal in antioxidant-treated crackers during storage; conditions: for order of induction periods for headspace hexanal: time to reach threshold [Hexanal]=1.0 mM/g cracker, FIG. 3B; for storage day at which headspace hexanal began to increase (end of lag phase) / activity concluded from headspace hexanal formation: 153 μmol antioxidant in crackers; for storage day at which headspace hexanal began to increase (end of lag phase): autoxidized at 55° C. in the absence of light, FIG. 2; for activity concluded from headspace hexanal formation: 55° C., compared to control crackers
# Description: as §1, §2
# Cracker samples were prepared for GC-MS analysis by adding 10 μL of 100 mg/L 2-methypentanal (internal standard) in methanol directly through the capped headspace vial's septum. The GC system consisted of a 7890B gas chromatograph (Agilent, Santa Clara, Calif., U.S.) with sample introduction by means of an autosampler (Robotic MultiPurpose Sampler, Gerstel, Mülheim, Germany). Samples were equilibrated for 10 minutes at 55° C. with continuous shaking. A 50/30 μm divinylbenzene/carboxen/polydimethylsiloxane (DVB/CAR/PDMS) (1 cm) (Supelco Analytical, Bellefonte, Pa., U.S.) solid phase microextraction (SPME) fiber was exposed to the sample headspace for 2 minutes at 55° C. The SPME fiber was desorbed for 6 minutes at 250° C. in the injection port equipped with a SPME inlet liner at a split ratio of 10:1. Volatile aldehydes were separated on a Rtx-WAX capillary column (30 m, 0.25 mm i.d., 0.25 μm film thickness) (Restek, Bellefonte, Pa., U.S.). An oven program was followed to separate the different volatile aldehydes at a constant helium carrier gas flow rate of 1.22 mL/min. The oven program was as follows: hold at 40° C. for 1 minute; ramp at 10° C./min to 75° C.; ramp at 100° C./min to 250° C.; hold at 250° C. for 1.75 minutes. Detection and quantification of hexanal and 2-methylpentanal was achieved using a single quadrupole mass spectrometer (5977B, Agilent, Santa Clara, Calif., U.S.) coupled to the GC. The MS transfer line, quadrupole, and detector temperatures were set to 250° C., 230° C., 150° C., respectively. Mass spectra were collected in electron impact mode.
# [4] = literature, same low-moisture model cracker system; cited from earlier work
# [5] = oxygen radical absorbance capacity assay, earlier work of the Inventors; cited from earlier work
# [6] = 153 μmol antioxidant in crackers, 55° C.
# [7] = 153 μmol antioxidant in crackers
smiles,measurement,setting,value
"Cc1cc(C(C)(C)C)c(O)c(C(C)(C)C)c1 [BHT, butylated hydroxytoluene]",course of lipid hydroperoxide formation after the lag phase (in words),[1]; [6],"slow, steady increase"
same,storage day at which lipid hydroperoxide concentration began to increase (end of lag phase),[1]; [7],25 days
same,order of induction periods for lipid hydroperoxides,[1],AR Mix≈C23:0>C25:0>(C21:0≈C19:0)>(C19:0≈BHT)>(BHT≈orcinol)>(orcinol≈C17:0)>control>>α-tocopherol
same,antioxidant activity in the low-moisture model cracker system (in words),[2],strong antioxidant activity
same,order of induction periods for headspace hexanal,[3],C23:0>BHT>C25:0 AR Mix>C21:0>C19:0≈C17:0>control≈orcinol>>α-tocopherol
CCCCCCCCCCCCCCCCCc1cc(O)cc(O)c1 [C17:0],storage day at which lipid hydroperoxide concentration began to increase (end of lag phase),[1]; [7],25 days
same,order of induction periods for lipid hydroperoxides,[1],AR Mix≈C23:0>C25:0>(C21:0≈C19:0)>(C19:0≈BHT)>(BHT≈orcinol)>(orcinol≈C17:0)>control>>α-tocopherol
same,storage day at which headspace hexanal began to increase (end of lag phase),[3],45 days
same,order of induction periods for headspace hexanal,[3],C23:0>BHT>C25:0 AR Mix>C21:0>C19:0≈C17:0>control≈orcinol>>α-tocopherol
CCCCCCCCCCCCCCCCCCCc1cc(O)cc(O)c1 [C19:0],storage day at which lipid hydroperoxide concentration began to increase (end of lag phase),[1]; [7],25 days
same,order of induction periods for lipid hydroperoxides,[1],AR Mix≈C23:0>C25:0>(C21:0≈C19:0)>(C19:0≈BHT)>(BHT≈orcinol)>(orcinol≈C17:0)>control>>α-tocopherol
same,storage day at which headspace hexanal began to increase (end of lag phase),[3],50 days
same,order of induction periods for headspace hexanal,[3],C23:0>BHT>C25:0 AR Mix>C21:0>C19:0≈C17:0>control≈orcinol>>α-tocopherol
CCCCCCCCCCCCCCCCCCCCCc1cc(O)cc(O)c1 [C21:0],storage day at which lipid hydroperoxide concentration began to increase (end of lag phase),[1]; [7],25 days
same,order of induction periods for lipid hydroperoxides,[1],AR Mix≈C23:0>C25:0>(C21:0≈C19:0)>(C19:0≈BHT)>(BHT≈orcinol)>(orcinol≈C17:0)>control>>α-tocopherol
same,storage day at which headspace hexanal began to increase (end of lag phase),[3],70 days
same,order of induction periods for headspace hexanal,[3],C23:0>BHT>C25:0 AR Mix>C21:0>C19:0≈C17:0>control≈orcinol>>α-tocopherol
CCCCCCCCCCCCCCCCCCCCCCCc1cc(O)cc(O)c1 [C23:0],course of lipid hydroperoxide formation after the lag phase (in words),[1]; [6],"slow, steady increase"
same,order of induction periods for lipid hydroperoxides,[1],AR Mix≈C23:0>C25:0>(C21:0≈C19:0)>(C19:0≈BHT)>(BHT≈orcinol)>(orcinol≈C17:0)>control>>α-tocopherol
same,antioxidant activity in the low-moisture model cracker system (in words),[2],optimum activity; also recorded: more effective than BHT
same,storage day at which headspace hexanal began to increase (end of lag phase),[3],still in the lag phase of lipid oxidation at the conclusion of the study
same,order of induction periods for headspace hexanal,[3],C23:0>BHT>C25:0 AR Mix>C21:0>C19:0≈C17:0>control≈orcinol>>α-tocopherol
CCCCCCCCCCCCCCCCCCCCCCCCCc1cc(O)cc(O)c1 [C25:0],course of lipid hydroperoxide formation after the lag phase (in words),[1]; [6],"slow, steady increase"
same,order of induction periods for lipid hydroperoxides,[1],AR Mix≈C23:0>C25:0>(C21:0≈C19:0)>(C19:0≈BHT)>(BHT≈orcinol)>(orcinol≈C17:0)>control>>α-tocopherol
same,antioxidant activity in the low-moisture model cracker system (in words),[2],more effective than BHT
same,order of induction periods for headspace hexanal,[3],C23:0>BHT>C25:0 AR Mix>C21:0>C19:0≈C17:0>control≈orcinol>>α-tocopherol
CCCCCCCCCCCCCCCCCCCCOC(=O)C(Cc1ccc(O)c(O)c1)OC(=O)C=Cc1ccc(O)c(O)c1 (stereo not shown) [eicosyl ester],antioxidant activity against formation of lipid hydroperoxides and hexanal,[4],stronger antioxidant activity than rosmarinic acid and the dodecyl ester
Cc1cc(O)cc(O)c1 [orcinol],radical scavenging capacity,[5],strongest antiradical activity
same,course of lipid hydroperoxide formation after the lag phase (in words),[1]; [6],oxidizing most rapidly
same,storage day at which lipid hydroperoxide concentration began to increase (end of lag phase),[1]; [7],25 days
same,order of induction periods for lipid hydroperoxides,[1],AR Mix≈C23:0>C25:0>(C21:0≈C19:0)>(C19:0≈BHT)>(BHT≈orcinol)>(orcinol≈C17:0)>control>>α-tocopherol
same,antioxidant activity in the low-moisture model cracker system (in words),[2],weak to no antioxidant activity
same,activity concluded from headspace hexanal formation,[3],neither prooxidant or antioxidant activity
same,storage day at which headspace hexanal began to increase (end of lag phase),[3],> 35 days
same,order of induction periods for headspace hexanal,[3],C23:0>BHT>C25:0 AR Mix>C21:0>C19:0≈C17:0>control≈orcinol>>α-tocopherol
O=C(/C=C/c1ccc(O)c(O)c1)O[C@H](Cc1ccc(O)c(O)c1)C(=O)O [rosmarinic acid],antioxidant activity against formation of lipid hydroperoxides and hexanal,[4],weak antioxidant and prooxidant activity
Cc1c(C)c2c(c(C)c1O)CC[C@@](C)(CCC[C@H](C)CCC[C@H](C)CCCC(C)C)O2 [α-tocopherol],activity concluded from lipid hydroperoxide formation,"[1]; 153 μmol antioxidant in crackers, 55° C., compared to control crackers",prooxidant activity
same,storage day at which lipid hydroperoxide concentration began to increase (end of lag phase),[1]; [7],immediately upon storage
same,order of induction periods for lipid hydroperoxides,[1],AR Mix≈C23:0>C25:0>(C21:0≈C19:0)>(C19:0≈BHT)>(BHT≈orcinol)>(orcinol≈C17:0)>control>>α-tocopherol
same,antioxidant activity in the low-moisture model cracker system (in words),[2],strong prooxidant activity
same,activity concluded from headspace hexanal formation,[3],prooxidant behavior
same,storage day at which headspace hexanal began to increase (end of lag phase),[3],5 days
same,order of induction periods for headspace hexanal,[3],C23:0>BHT>C25:0 AR Mix>C21:0>C19:0≈C17:0>control≈orcinol>>α-tocopherol
